Results as given in PubChem BioAssay (NCI).
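Dose response: 5 concentrations. Exposure: 48 h. Format: 96-well plates. Endpoint: linear interpolation; highest concentration if not reached. Abbreviation: GI50, concentration required for 50% inhibition of growth. Definition used: TGI = concentration required for complete inhibition of growth.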

How the values were obtained:
Assay in all cases: inhibition of tumour cell growth, NCI panel, 48 h
HCC-2998 colon = tested on: HCC-2998 colon
SK-MEL-28 melanoma = tested on: SK-MEL-28 melanoma
NCI-H23 lung = tested on: NCI-H23 lung
NCI/ADR-RES ovarian = tested on: NCI/ADR-RES ovarian
HCT-15 colon = tested on: HCT-15 colon
MDA-MB-435 = tested on: MDA-MB-435
M14 melanoma = tested on: M14 melanoma
SF-539 CNS = tested on: SF-539 CNS
SN12C renal = tested on: SN12C renal
DU-145 prostate = tested on: DU-145 prostate
ACHN renal = tested on: ACHN renal
SR leukemia = tested on: SR leukemia
HOP-62 NSCLC = tested on: HOP-62 NSCLC
HCT-116 colon = tested on: HCT-116 colon
COLO 205 colon = tested on: COLO 205 colon
HOP-92 NSCLC = tested on: HOP-92 NSCLC
UACC-62 melanoma = tested on: UACC-62 melanoma
NCI-H460 lung = tested on: NCI-H460 lung
SF-295 CNS = tested on: SF-295 CNS
SW-620 colon = tested on: SW-620 colon
SK-MEL-5 melanoma = tested on: SK-MEL-5 melanoma
TK-10 renal = tested on: TK-10 renal
IGROV1 ovarian = tested on: IGROV1 ovarian
KM12 colon = tested on: KM12 colon
CCRF-CEM leukemia = tested on: CCRF-CEM leukemia
CAKI-1 renal = tested on: CAKI-1 renal
A549 NSCLC = tested on: A549 NSCLC
NCI-H226 lung = tested on: NCI-H226 lung
MDA-N = tested on: MDA-N
MDA-MB-231 breast = tested on: MDA-MB-231 breast
HT29 colon = tested on: HT29 colon
RXF 393 renal = tested on: RXF 393 renal
HS 578T breast = tested on: HS 578T breast
UO-31 renal = tested on: UO-31 renal
T-47D breast = tested on: T-47D breast
NCI-H522 lung = tested on: NCI-H522 lung
RPMI-8226 leukemia = tested on: RPMI-8226 leukemia
MALME-3M melanoma = tested on: MALME-3M melanoma
LOX IMVI melanoma = tested on: LOX IMVI melanoma
SF-268 CNS = tested on: SF-268 CNS
SNB-75 CNS = tested on: SNB-75 CNS
OVCAR-5 ovarian = tested on: OVCAR-5 ovarian
MCF7 breast = tested on: MCF7 breast
OVCAR-8 ovarian = tested on: OVCAR-8 ovarian
OVCAR-3 ovarian = tested on: OVCAR-3 ovarian
PC-3 prostate = tested on: PC-3 prostate
OVCAR-4 ovarian = tested on: OVCAR-4 ovarian
MOLT-4 leukemia = tested on: MOLT-4 leukemia
786-0 renal = tested on: 786-0 renal
SNB-19 CNS = tested on: SNB-19 CNS
U251 CNS = tested on: U251 CNS
SK-OV-3 ovarian = tested on: SK-OV-3 ovarian
K-562 leukemia = tested on: K-562 leukemia
BT-549 breast = tested on: BT-549 breast
EKVX NSCLC = tested on: EKVX NSCLC
SK-MEL-2 melanoma = tested on: SK-MEL-2 melanoma
HL-60(TB) leukemia = tested on: HL-60(TB) leukemia
A498 renal = tested on: A498 renal
UACC-257 melanoma = tested on: UACC-257 melanoma

Work on `Clc1cc(Cl)ncn1` yielded a TGI (HCC-2998 colon) of over 100 µM, a TGI (SK-MEL-28 melanoma) of over 100 µM and a TGI (NCI-H23 lung) of over 100 µM. The TGI (NCI/ADR-RES ovarian) was over 100 µM, the TGI (HCT-15 colon) was over 100 µM and the TGI (MDA-MB-435) was over 100 µM. The TGI (M14 melanoma) was over 100 µM, the TGI (SF-539 CNS) was over 100 µM and the TGI (SN12C renal) was over 100 µM. The TGI (DU-145 prostate) was over 100 µM, the TGI (ACHN renal) was over 100 µM and the TGI (SR leukemia) was over 100 µM. It also gave a TGI (HOP-62 NSCLC) of over 100 µM, a TGI (HCT-116 colon) of over 100 µM and a TGI (COLO 205 colon) of over 100 µM. The TGI (HOP-92 NSCLC) was over 100 µM, the TGI (UACC-62 melanoma) was over 100 µM and the TGI (NCI-H460 lung) was over 100 µM. The TGI (SF-295 CNS) was over 100 µM, the TGI (SW-620 colon) was over 100 µM and the TGI (SK-MEL-5 melanoma) was over 100 µM. It also gave a TGI (TK-10 renal) of over 100 µM, a TGI (IGROV1 ovarian) of over 100 µM and a TGI (KM12 colon) of over 100 µM. For the same compound, the TGI (CCRF-CEM leukemia) was over 100 µM, the TGI (CAKI-1 renal) was over 100 µM and the TGI (A549 NSCLC) was over 100 µM. It also gave a TGI (NCI-H226 lung) of over 100 µM, a TGI (MDA-N) of over 100 µM and a TGI (MDA-MB-231 breast) of over 100 µM. It also gave a TGI (HT29 colon) of over 100 µM, a TGI (RXF 393 renal) of over 100 µM and a TGI (HS 578T breast) of over 100 µM. It also gave a TGI (UO-31 renal) of over 100 µM, a TGI (T-47D breast) of over 100 µM and a TGI (NCI-H522 lung) of over 100 µM. It also gave a TGI (RPMI-8226 leukemia) of over 100 µM, a TGI (MALME-3M melanoma) of over 100 µM and a TGI (LOX IMVI melanoma) of over 100 µM. The TGI (SF-268 CNS) was over 100 µM, the TGI (SNB-75 CNS) was over 100 µM and the TGI (OVCAR-5 ovarian) was over 100 µM. The TGI (MCF7 breast) was over 100 µM, the TGI (OVCAR-8 ovarian) was over 100 µM and the TGI (OVCAR-3 ovarian) was over 100 µM. The TGI (PC-3 prostate) was over 100 µM, the TGI (OVCAR-4 ovarian) was over 100 µM and the TGI (MOLT-4 leukemia) was over 100 µM. It also gave a TGI (786-0 renal) of over 100 µM, a TGI (SNB-19 CNS) of over 100 µM and a TGI (U251 CNS) of over 100 µM. For the same compound, the TGI (SK-OV-3 ovarian) was over 100 µM and the TGI (K-562 leukemia) was over 100 µM.
`O=C(/C=C/C=C/c1ccccc1)c1ccco1` gave a GI50 (HCC-2998 colon) of 15 µM, a TGI (HCC-2998 colon) of 28.3 µM and a GI50 (SK-MEL-28 melanoma) of 17 µM. The TGI (SK-MEL-28 melanoma) was 31.6 µM, the GI50 (BT-549 breast) was 17.2 µM and the TGI (BT-549 breast) was 40.7 µM. It also gave a GI50 (NCI-H23 lung) of 15 µM, a TGI (NCI-H23 lung) of 30.4 µM and a GI50 (NCI/ADR-RES ovarian) of 16.4 µM. For the same compound, the TGI (NCI/ADR-RES ovarian) was 36.7 µM, the GI50 (HCT-15 colon) was 11.6 µM and the TGI (HCT-15 colon) was 26.3 µM. For the same compound, the GI50 (MDA-MB-435) was 13.1 µM, the TGI (MDA-MB-435) was 29.2 µM and the GI50 (M14 melanoma) was 17.3 µM. The TGI (M14 melanoma) was 34.8 µM, the GI50 (SF-539 CNS) was 17.1 µM and the TGI (SF-539 CNS) was 31.5 µM. The GI50 (SN12C renal) was 16 µM, the TGI (SN12C renal) was 34.9 µM and the GI50 (DU-145 prostate) was 12.5 µM. It also gave a TGI (DU-145 prostate) of 25.4 µM, a GI50 (ACHN renal) of 16.9 µM and a TGI (ACHN renal) of 33.5 µM. It also gave a GI50 (SR leukemia) of 1860 nM, a TGI (SR leukemia) of 11.2 µM and a GI50 (HOP-62 NSCLC) of 22.2 µM. The TGI (HOP-62 NSCLC) was 45.8 µM, the GI50 (HCT-116 colon) was 12.2 µM and the TGI (HCT-116 colon) was 25.1 µM. For the same compound, the GI50 (EKVX NSCLC) was 15.5 µM, the TGI (EKVX NSCLC) was 62.1 µM and the GI50 (COLO 205 colon) was 17.9 µM. The TGI (COLO 205 colon) was 31.7 µM, the GI50 (HOP-92 NSCLC) was 7.96 µM and the TGI (HOP-92 NSCLC) was 43.7 µM. For the same compound, the GI50 (UACC-62 melanoma) was 14.6 µM, the TGI (UACC-62 melanoma) was 28.4 µM and the GI50 (NCI-H460 lung) was 21 µM. For the same compound, the TGI (NCI-H460 lung) was 47.5 µM, the GI50 (SF-295 CNS) was 13.2 µM and the TGI (SF-295 CNS) was 34.6 µM. It also gave a GI50 (SW-620 colon) of 13.4 µM, a TGI (SW-620 colon) of 28.6 µM and a GI50 (SK-MEL-5 melanoma) of 15.9 µM. The TGI (SK-MEL-5 melanoma) was 29.4 µM, the GI50 (TK-10 renal) was 16.9 µM and the TGI (TK-10 renal) was 40.1 µM. It also gave a GI50 (IGROV1 ovarian) of 18.3 µM, a TGI (IGROV1 ovarian) of 37.6 µM and a GI50 (KM12 colon) of 11 µM. The TGI (KM12 colon) was 24.1 µM, the GI50 (CCRF-CEM leukemia) was 10.2 µM and the TGI (CCRF-CEM leukemia) was 33.3 µM. It also gave a GI50 (CAKI-1 renal) of 16 µM, a TGI (CAKI-1 renal) of 32.8 µM and a GI50 (SK-MEL-2 melanoma) of 18.8 µM. For the same compound, the TGI (SK-MEL-2 melanoma) was 37.3 µM, the GI50 (A549 NSCLC) was 23.8 µM and the TGI (A549 NSCLC) was 77.4 µM. For the same compound, the GI50 (NCI-H226 lung) was 20.7 µM, the TGI (NCI-H226 lung) was 50.2 µM and the GI50 (MDA-MB-231 breast) was 22.7 µM. The TGI (MDA-MB-231 breast) was 57.1 µM, the GI50 (HT29 colon) was 16.7 µM and the TGI (HT29 colon) was 33.5 µM. The GI50 (RXF 393 renal) was 9.78 µM, the TGI (RXF 393 renal) was 24.6 µM and the GI50 (HS 578T breast) was 17.5 µM. It also gave a TGI (HS 578T breast) of 52.9 µM, a GI50 (UO-31 renal) of 10.6 µM and a TGI (UO-31 renal) of 22.6 µM. For the same compound, the GI50 (HL-60(TB) leukemia) was 10 µM, the TGI (HL-60(TB) leukemia) was 97.6 µM and the GI50 (T-47D breast) was 7.5 µM. For the same compound, the TGI (T-47D breast) was 37.5 µM, the GI50 (NCI-H522 lung) was 13.2 µM and the TGI (NCI-H522 lung) was 27 µM. The GI50 (RPMI-8226 leukemia) was 1810 nM, the TGI (RPMI-8226 leukemia) was 10.7 µM and the GI50 (MALME-3M melanoma) was 12.6 µM. It also gave a TGI (MALME-3M melanoma) of 28.6 µM, a GI50 (LOX IMVI melanoma) of 13.7 µM and a TGI (LOX IMVI melanoma) of 27.9 µM. For the same compound, the GI50 (SF-268 CNS) was 18.2 µM, the TGI (SF-268 CNS) was 41.1 µM and the GI50 (SNB-75 CNS) was 18 µM. It also gave a TGI (SNB-75 CNS) of 72.5 µM, a GI50 (OVCAR-5 ovarian) of 18.4 µM and a TGI (OVCAR-5 ovarian) of 33.3 µM. For the same compound, the GI50 (MCF7 breast) was 1240 nM, the TGI (MCF7 breast) was 21.6 µM and the GI50 (A498 renal) was 14.3 µM. It also gave a TGI (A498 renal) of 39.1 µM, a GI50 (OVCAR-8 ovarian) of 27.1 µM and a TGI (OVCAR-8 ovarian) of over 100 µM. It also gave a GI50 (OVCAR-3 ovarian) of 14.2 µM, a TGI (OVCAR-3 ovarian) of 27.6 µM and a GI50 (PC-3 prostate) of 16.4 µM. For the same compound, the TGI (PC-3 prostate) was 53 µM, the GI50 (UACC-257 melanoma) was 21.8 µM and the TGI (UACC-257 melanoma) was 60.7 µM. The GI50 (OVCAR-4 ovarian) was 23.1 µM, the TGI (OVCAR-4 ovarian) was over 100 µM and the GI50 (MOLT-4 leukemia) was 1920 nM. The TGI (MOLT-4 leukemia) was 21.5 µM, the GI50 (786-0 renal) was 15.2 µM and the TGI (786-0 renal) was 32.5 µM. It also gave a GI50 (SNB-19 CNS) of 15.2 µM, a TGI (SNB-19 CNS) of 31.9 µM and a GI50 (U251 CNS) of 12.4 µM. It also gave a TGI (U251 CNS) of 24.9 µM, a GI50 (SK-OV-3 ovarian) of 28.8 µM and a TGI (SK-OV-3 ovarian) of 84.6 µM. It also gave a GI50 (K-562 leukemia) of 10.1 µM and a TGI (K-562 leukemia) of 29.6 µM.
